The numbers were not newly measured in patent US6617356B2, “Gel system for oral and topical administration of water insoluble and/or water intolerant drugs and supplements” (priority 2000, dated 2003), which cites them from elsewhere.

The conditions of the series: oral, 20 grams creatine monohydrate per day for five days.

For `CN(CC(=O)O)C(=N)N.O` [creatine monohydrate], the “Muscle total creatine concentration” value is “increase”; the “Peak and total work production” value is recorded as “cumulative increase”.
